Source: publication PMC9607537, “Understanding the Antilymphoma Activity of Annona macroprophyllata Donn and Its Acyclic Terpenoids: In Vivo, In Vitro, and In Silico Studies” (Molecules, 2022)
Read-outs that look alike come from different tables or passages of the source.

Tests used:
U-937 cells = experiment: cells; conditions: read-out: CC50 (median cytotoxic concentration causing 50% cell death)
Protocol: The cell line U-937 was acquired (ATCC: CRL 1593.2, Middlesex, UK) and characterized as a type of diffuse monocytic NHL; for its propagation two million cells were used and seeded in RPMI 1640 medium (Roswell Park Memorial Institute) supplemented with 2 mM L-glutamine, 10% v/v fetal bovine serum (Thermo), 100 mM 1% sodium pyruvate, and 1% penicillin/streptomycin. The cells were kept in an atmosphere with a concentration of carbon dioxide (CO2) at 5% at 37 °C.
We evaluated the in vitro cytotoxic activity using the cell proliferation reagent WST-1, based on the cleavage of tetrazolium salts to formazan by the enzyme mitochondrial dehydrogenase. For cell proliferation, the Quick Cell Proliferation Kit II (Abcam, Cambridge, UK, Cat. No. ab65475) was used, 96-well plates were used and 2 × 10^5 cells per well were seeded in a final volume of 100 µL/well of culture medium. […] After 24 h, viability was assessed by the addition of 10 µL of WST-1 reagent and the cells were further incubated for 2 h at 37 °C and 5% CO2. Finally, the absorbance at 440 nm was measured using a microplate reader.

[1] = system: lymph node growth in mice inoculated with U-937 cells; experiment: Antilymphoma activity in Balb/c mice inoculated with U-937 cells; format: in vivo; conditions: oral, 9 days treatment, mean ± SEM, n = 6; for ED50 Female (inhibition of lymph node growth): female Balb/c mice inoculated with U-937 cells; for ED50 Male (inhibition of lymph node growth): male Balb/c mice inoculated with U-937 cells
From the text: We induced lymphoma following the method of Calzada et al.. We randomly formed fifteen groups of male mice and of female mice (n = 6). […] After cell inoculation, we observed all animals for the following 28 days, after which we orally administered treatments for 9 days. Over the following 28 days, we recorded the weight and survival of the animals. Finally, at day 65, we sacrificed the animals and removed and weighed the left and right axillary and inguinal lymph nodes.

Balb/c mice = experiment: in vivo; conditions: for TI Female (therapeutic index, LD50/ED50) / TI Male (therapeutic index, LD50/ED50): LD50 acute oral toxicity / ED50 antilymphoma activity; for TI Female (therapeutic index, LD50/ED50): female mice; for TI Male (therapeutic index, LD50/ED50): male mice; for OECD acute systemic toxicity category: acute oral toxicity, OECD guideline 423; for OECD acute systemic toxicity category / Mortality in acute oral toxicity test: mice; for Mortality in acute oral toxicity test: until end of study (14 days)
Protocol: (§1) Twenty-four female mice of the Balb/c strain were randomly used to form 8 groups (n = 3). […] The control group was administered with only the vehicle (Tween 80 at 2% in water) and for the compounds, doses of 500 and 1000 mg kg^−1 were administered. […] Subsequently, we sacrificed the animals and extracted the organs (stomach, intestines, spleen, liver, and kidneys) were extracted, reporting the pathological changes, if any.

Artemia salina larvae = experiment: Brine shrimp lethality (BSL) test; format: in vivo; conditions: mortality at 24 h, mean ± SEM
Protocol: To obtain the LD50 of the thirteen compounds isolated by TLC, we performed the brine shrimp assay according to the procedure described by Meyer et al.. We exposed groups of 10 shrimp in brine to concentrations of 0.5, 1, 5, 10 µg mL^−1 of each product (P1-P13). The concentrations were reached by dissolving the compounds in 2 mL of ethanol, subsequently transferring to different flasks. After evaporating the solvent at room temperature, we introduced the BS and adjusted the volume with artificial seawater to 5 mL. We performed this test in triplicate for each compound.

in vivo = conditions: female, Balb/c, mouse, in vivo, po
Protocol: as §1

U-937 cell line = system: U-937 cell line; parameters: method as in PMID 34638856; conditions: viability analysis by flow cytometry; cited from earlier work

Compound | CC50 (U-937 cells; U-937 cells, 24 h exposure, WST-1, mean ± SEM, n = 3) [µM] | ED50 Female (inhibition of lymph node growth) [1] [mg/kg] | ED50 Male (inhibition of lymph node growth) [1] [mg/kg] | TI Female (therapeutic index, LD50/ED50) (Balb/c mice) | TI Male (therapeutic index, LD50/ED50) (Balb/c mice) | OECD acute systemic toxicity category (Balb/c mice) | TI (therapeutic index) in both sexes (Balb/c mice) | LD50 (median lethal dose, acute oral toxicity) (Balb/c mice; female Balb/c mice, single oral dose, 14 days observation, n = 3) [mg/kg] | Mortality in acute oral toxicity test (Balb/c mice; single oral dose) | LD50 (median lethal dose causing 50% of A. salina death) (Artemia salina larvae; n = 3) [µg/mL] | CC50 (U-937 cells; Homo sapiens, U-937, 24 h) [µM] | LD50 at 14 days (in vivo) [mg/kg] | LD50 (median lethal dose causing 50% of A. salina death) (Artemia salina larvae; n = 3, listed as AF) [µg/mL] | LD50 (median lethal dose causing 50% of A. salina death) (Artemia salina larvae; n = 3, listed as FA (P10)) [µg/mL] | CC50 (U-937 cell line) [µM]
(2E,7R,11R)-3,7,11,15-tetramethylhexadec-2-en-1-ol [PT] | 296 ± 70 | 6.71 ± 0.31 | 5.83 ± 0.50 | 149.03 | 171.52 | category 4 (category 4, low risk > 300 and ≤2000 mg/kg) | > 100 | >1000 | did not cause mortality | 3.03 ± 0.33 | – | – | – | – | –
CC(=O)OC/C=C(\C)CC/C=C(\C)CCC=C(C)C [FA, [(E,E)-3,7,11-trimethyldodeca-2,6,10-trienyl] acetate] | – | 5.89 ± 0.39 | 5.09 ± 0.66 | 169.77 | 196.46 | category 4 (category 4, low risk > 300 and ≤2000 mg/kg) | > 100 | – | did not cause mortality | – | 275 ± 80 | > 1000 | 5.82 ± 0.58 | 5.82 ± 0.58 | –
CC(C)=CCC/C(C)=C/CC/C(C)=C/CC/C(C)=C/CO [Gg, (2E,6E,10E)-3,7,11,15-tetramethylhexadeca-2,6,10,14-tetraen-1-ol] | – | 7.22 ± 0.51 | 6.98 ± 0.57 | 138.5 | – | category 4 (category 4, low risk > 300 and ≤2000 mg/kg) | > 100 | – | caused death in the animals | 1.41 ± 0.42 | 395 ± 5 | 742.17 ± 0.34 | – | – | –
CN(Cc1cnc2nc(N)nc(N)c2n1)c1ccc(C(=O)N[C@@H](CCC(=O)O)C(=O)O)cc1 [MTX, methotrexate, reference compound] | – | 1.31 ± 0.34 | 0.99 ± 0.024 | – | – | – | – | – | – | – | 243 ± 7 | 335 ± 0.39 | – | – | 0.5
